Assay [1] concerns Giardia intestinalis. As to the kind of experiment: Antiparasitic activity against trophozoite stage of Giardia intestinalis IMSS:0989:1 after 48 hrs. Format: functional, organism-based. The conditions noted are these: Giardia duodenalis, IMSS:0989:1, 48 h.
Assay [2] deals with Entamoeba histolytica. As to the kind of experiment: Antiparasitic activity against trophozoite stage of Entamoeba histolytica HM-1:IMSS after 48 hrs. Format: functional, organism-based.
Assay [3] deals with Trichomonas vaginalis. Nature of the assay: Antiparasitic activity against trophozoite stage of Trichomonas vaginalis CNCD 147 after 48 hrs. The format is functional, organism-based. The conditions noted are these: CNCD 147, 48 h.
The test system of assay [4] is Entamoeba histolytica. Nature of the assay: Antiparasitic activity against trophozoite stage of Entamoeba histolytica HM-1:IMSS after 48 hrs by haemocytometric method. The format is functional, organism-based.
For assay [5], the system named is Giardia intestinalis. As to the kind of experiment: Potency index, ratio of metronidazole IC50 to test compound IC50 for trophozoite stage of Giardia intestinalis IMSS:0989:1. Format: functional, Giardia duodenalis.
Assay [6] relates to Entamoeba histolytica. Nature of the assay: Potency index, ratio of metronidazole IC50 to test compound IC50 for trophozoite stage of Entamoeba histolytica HM-1:IMSS. Format: functional.

One may read the IC50 as the concentration that gives 50% inhibition.

For `CSc1nc2cc(C(=O)N/N=C/c3ccc([N+](=O)[O-])o3)c(Cl)cc2n1C`, the IC50 was determined as 29.2 nM in assay [1], 26.6 nM in assay [2] and 13.2 nM in assay [3].

For `CSc1nc2cc(C(=O)Nc3ccccn3)c(Cl)cc2n1C`, the 50% inhibitory concentration (IC50) came to 346 nM in assay [1], 34.5 nM in assay [2] and 12 nM in assay [3].

For the compound `CSc1nc2cc(C(=O)Nc3ccccc3)c(Cl)cc2[nH]1`, the values for the IC50 in assay [1], in assay [2] and in assay [3] were 72.5 nM, 52 nM and 120 nM, respectively.

In the case of `CSc1nc2cc(C(=O)Nc3ccccn3)c(Cl)cc2[nH]1`, the IC50 is 77 nM in assay [1], 44 nM in assay [2] and 67.6 nM in assay [3].

Take `CSc1nc2cc(C(=O)Nc3cccc(Cl)n3)c(Cl)cc2[nH]1`: the IC50 in assay [1] is 454 nM; in assay [2], 36.9 nM; in assay [3], 128 nM.

Consider `CSc1nc2cc(C(=O)NNC(=O)OC(C)(C)C)c(Cl)cc2n1C`, for which the IC50 in assay [1] stood at 56.6 nM; in assay [2], 48.5 nM; in assay [3], 28.3 nM.

For `FC(F)(F)c1nc2c(Br)c(Br)c(Br)cc2[nH]1`, in assay [4], the IC50 is 13800 nM.

With `CSc1nc2cc(C(=O)Nc3cccc(C)c3)c(Cl)cc2[nH]1`, the IC50 in assay [1] is 250 nM; in assay [2] it was 120 nM; in assay [3], 515 nM.

As to `CSc1nc2cc(C(=O)Nc3cccc(Cl)n3)c(Cl)cc2n1C`, the concentration for half-maximal inhibition (IC50) is 12.2 nM in assay [1], 40.8 nM in assay [2] and 368 nM in assay [3].

Turning to `CSc1nc2cc(C(=O)Nc3cccc(Cl)c3)c(Cl)cc2[nH]1`, the IC50 in assay [1] came out at 1110 nM; in assay [2] it was 51 nM; in assay [3] it was 162 nM.

`CSc1nc2cc(C(=O)Nc3cccc(C)n3)c(Cl)cc2n1C`: the IC50 turned out to be 15.8 nM in assay [1], 41.8 nM in assay [2] and 28.8 nM in assay [3].

Regarding `CSc1nc2cc(C(=O)Nc3cccc(C)n3)c(Cl)cc2[nH]1`, the results for the IC50 in assay [1], in assay [2] and in assay [3] were 135 nM, 81.3 nM and 111 nM, respectively.

Compound `FC(F)(F)c1nc2cc(Br)c(Br)cc2[nH]1` gave an IC50 in assay [4] of 437 nM.

As to `CSc1nc2cc(C(=O)Nc3ccc([N+](=O)[O-])cn3)c(Cl)cc2n1C`, the “Ratio IC50” value came out at 155 in assay [5] and 41 in assay [6]. Besides, the IC50 was 7.9 nM in assay [1], 9.2 nM in assay [2] and 41 nM in assay [3].

In turn, `FC(F)(F)C(F)(F)c1nc2c(Br)c(Br)c(Br)c(Br)c2[nH]1` had an IC50 in assay [4] of 229 nM.

For `O=[N+]([O-])c1cc2nc(C(F)(F)F)[nH]c2cc1[N+](=O)[O-]`, in assay [4], inhibition was half-maximal at 1550 nM (IC50).

Values taken from ChEMBL document CHEMBL4190212, “Synthesis, antiprotozoal activity, and chemoinformatic analysis of 2-(methylthio)-1H-benzimidazole-5-carboxamide derivatives: Identification of new selective giardicidal and trichomonicidal compounds” (Eur J Med Chem, 2017).
